Measurements published in patent EP1420018A1, “Pyrido[1,2-a]benzimidazole derivatives useful in treating central nervous system disorders” (Ortho-McNeil Pharmaceutical, Inc., priority 1996, dated 1998).
Like-named read-outs stand apart in the source and are kept apart here.

Columns and labels:
[1] = tested on: metrazol-induced convulsions; assay: Suppression of Metrazol-Induced Convulsions in Adult Male Mice; type: in vivo; conditions: for ED50: Mus musculus, po
[2] = tested on: metrazol-induced convulsions; assay: as above; type: in vivo; conditions: for ED50: Mus musculus, ip
Protocol: Assay to Determine the Suppression of Metrazol-Induced Convulsions in Adult Male Mice
Male CD1 mice, were fasted at least 16 hours, were divided into equal groups and test compounds or vehicle were administered parenterally. Water was not withheld except during the period of observations. […] Metrazol was dissolved in 0.9% sodium chloride solution, and its dose volume was 10 ml/kg. Animals were housed individually for observation of clonic convulsions, tonic convulsions and death for a period of 30 min. […] The biological assay was considered to be valid if the effects of a known anticonvulsant (positive control) were detected, within the same experiment. Activity was reported as percent reduction of clonic convulsions from the vehicle group.

[3] = biological target: benzodiazepine site of the GABA-A receptor; assay: Benzodiazepine Receptor Binding Assay (inhibition of 3H-flunitrazepam binding); conditions: read-out: GABAA Receptor Binding IC50
[4] = tested on: Anxiety in the Adult Male Rat; assay: Suppression of Anxiety in the Adult Male Rat (rat conflict test); type: in vivo, rats; conditions: for minimal effective dose: Rattus norvegicus
Protocol: Assay to Measure the Suppression of Anxiety in the Adult Male Rat
Male rats were deprived of water for 48 hours and were deprived of food for 24 hours prior to testing. After the first 24 hours of water deprivation, they were placed in the conflict chamber for a training period; wherein, they were allowed 200 unpunished licks from a bottle containing tap water. The experiment was run the next day. At the expected time of peak activity, the animals were placed in the chamber and allowed access to tap water. […] Their first lick initiates a 3-min test session. Subsequently, every 20th lick was punished by a 0.2-s shock delivered via the stainless-steel drinking-tube.
The Wilcoxon rank-sum test (Mann-Whitney U-test) was used to test for an increase (p<0.05, 1-tailed) in the median number of shocks in drug-treated groups, compared to a concurrently run vehicle-treated group. The biological assay is considered to be valid if the effects of a known anxiolytic (positive control) are detected, within the same experiment.

[5] = inhibition of 3H-flunitrazepam (ca. 3 nM) binding to membranes, 25°C, over 10,000 = not active
[6] = po, minimum effective dose, increase in shocks tolerated, >10 = active dose not determined, read-out: Rat Conflict (MED, mg/kg) po
[7] = block of clonic convulsions, male CD1 mice, >30 = active dose not determined
[8] = ip, minimum effective dose, increase in shocks tolerated, >10 = active dose not determined, read-out: Rat Conflict (MED, mg/kg) ip
[9] = ip, rat, ip, read-out: Rat Conflict (MED, mg/kg) ip
[10] = po, rat, po, read-out: Rat Conflict (MED, mg/kg) po

Compound	IC50 [3]	IC50 [3, 5]	minimal effective dose [4, 6]	ED50 [1, 7]	ED50 [2, 7]	minimal effective dose [4, 10]	other results
7-Fluoro-1,2-dihydro-5-[2-(methoxy)ethoxymethyl]-3-oxo-N-(2-fluorophenyl)pyrido[1,2-a]benzimidazole-4-carboxamide [Compound 160]	0.48 nM	–	–	–	–	–	Mouse Metrazol (ED50, mg/kg) po ([1]; mouse): 0.3 mg/kg; Mouse Metrazol (ED50, mg/kg) ip ([2]; mouse): <1 mg/kg; Rat Conflict (MED, mg/kg) ip ([4]; rat, ip): <10 mg/kg; Rat Conflict (MED, mg/kg) po ([4]; rat, po): 1 mg/kg
O=C(CN1C2=C(C(=O)Nc3ccccc3F)C(=O)CCN2c2ccc(F)cc21)NCCc1c[nH]cn1 [Compound 32]	–	3.56 nM	> 3 mg/kg	–	–	–	–
CN=C(NCCN1C2=C(C(=O)Nc3ccccc3F)C(=O)CCN2c2ccc(F)cc21)N1CCCC1 [Compound 33]	–	54 nM	> 3 mg/kg	–	–	–	–
COc1cccc2c1N(CCN(C)C)C1=C(C(=O)Nc3nccs3)C(=O)CCN12 [Compound 34]	–	1000 nM	> 3 mg/kg	–	–	–	–
Cc1ccc(NC(=O)C2=C3N(CCNS(=O)(=O)C(F)(F)F)c4cc(F)ccc4N3CCC2=O)s1 [Compound 35]	–	46.9 nM	> 10 mg/kg	–	–	–	–
N#CCCNC(=O)CN1C2=C(C(=O)Nc3ccccc3F)C(=O)CCN2c2ccc(F)cc21 [Compound 36, 7-Fluoro-1,2-dihydro-5-[N-(2-cyanoethyl)-2-acetamido]-3-oxo-N-(2-fluorophenyl)pyrido[1,2-a]benzimidazole-4-carboxamide]	–	3.3 nM	> 10 mg/kg	> 30 mg/kg	> 1 mg/kg	–	–
CN(CCN1C2=C(C(=O)Nc3ccccc3F)C(=O)CCN2c2ccc(F)cc21)S(=O)(=O)C(F)(F)F [Compound 37]	–	18.3 nM	> 10 mg/kg	> 30 mg/kg	> 1 mg/kg	–	–
COCCN(C)CCN1C2=C(C(=O)Nc3ccccc3F)C(=O)CCN2c2ccc(F)cc21 [Compound 38, 7-Fluoro-1,2-dihydro-5-[N-(2-(methoxy)ethyl)-2-(methylamino)ethyl]-3-oxo-N-(2-fluorophenyl)pyrido[1,2-a]-benzimidazole-4-carboxamide]	–	4.06 nM	3 mg/kg	1 mg/kg	< 1 mg/kg	–	–
O=C1CCN2C(=C1C(=O)Nc1ccccc1F)N(CCNS(=O)(=O)c1ccc(C(F)(F)F)cc1)c1cc(F)ccc12 [Compound 39]	–	122 nM	> 10 mg/kg	> 3 mg/kg	> 1 mg/kg	–	–
CN(C)C=NCCN1C2=C(C(=O)Nc3ccccc3F)C(=O)CCN2c2ccc(F)cc21 [Compound 40]	–	35 nM	10 mg/kg	~30 mg/kg	< 1 mg/kg	–	–
CCN(C)CCN1C2=C(C(=O)Nc3ccccc3F)C(=O)CCN2c2ccc(F)cc21 [Compound 41]	–	9.8 nM	10 mg/kg	~10 mg/kg	3 mg/kg	–	–
O=C1CCN2C(=C1C(=O)Nc1ccccc1F)N(CCNC(=O)c1ccc(C(F)(F)F)cc1)c1cc(F)ccc12 [Compound 42]	–	17 nM	~3 mg/kg	> 30 mg/kg	≥ 30 mg/kg	–	minimal effective dose [4, 8]: ≤ 10 mg/kg
CN(C)CCN1C2=C(C(=O)Nc3ccccc3F)C(=O)CCN2c2ccc(Cl)cc21 [Compound 43]	–	26.9 nM	> 10 mg/kg	< 30 mg/kg	1 to 10 mg/kg	–	minimal effective dose [4, 8]: 10 mg/kg
O=C1CCN2C(=C1C(=O)Nc1ccccc1F)N(CCNS(=O)(=O)c1ccccc1)c1cc(F)ccc12 [Compound 44]	–	10.1 nM	> 10 mg/kg	< 30 mg/kg	≤ 1 mg/kg	–	minimal effective dose [4, 8]: > 10 mg/kg
CN(C)CCN1C2=C(C(=O)Nc3ccccc3F)C(=O)CCN2c2cccc(F)c21 [Compound 45]	–	40.6 nM	10 mg/kg	3 to 10 mg/kg	1 mg/kg	–	minimal effective dose [4, 8]: > 10 mg/kg
O=C(CN1C2=C(C(=O)Nc3c(F)cccc3F)C(=O)CCN2c2ccc(F)cc21)Nc1ccccc1F [Compound 60]	21.4 nM	–	–	–	–	–	ED50 ([1]; mouse): > 30 mg/kg; ED50 ([2]; mouse): 10 mg/kg
O=C1CCN2C(=C1C(=O)Nc1c(F)cccc1F)N(CCN(Cc1ccccc1)Cc1ccccc1)c1cc(F)ccc12 [Compound 63, 7-Fluoro-1,2-dihydro-5-[N,N-di(benzyl)-2-aminoethyl]-3-oxo-N-(2,6-difluorophenyl)pyrido[1,2-a]benzimidazole-4-carboxamide]	15.5 nM	–	–	–	–	–	minimal effective dose [4, 9]: > 10 mg/kg
CCOCN1C2=C(C(=O)Nc3ccc(OCc4ccccc4)cc3F)C(=O)CCN2c2ccc(F)cc21 [Compound 92]	3.33 nM	–	–	–	–	> 3 mg/kg	–

Compound	IC50 [3]	IC50 [3, 5]	minimal effective dose [4, 6]	ED50 [1, 7]	ED50 [2, 7]	minimal effective dose [4, 10]	other results
CCOCN1C2=C(C(=O)Nc3ccc(OCCOC)cc3F)C(=O)CCN2c2ccc(F)cc21 [Compound 93]	1.8 nM	–	–	–	–	≤ 0.3 mg/kg	–
O=C1CCN2C(=C1C(=O)Nc1ccccc1F)N(CCO)c1c(O)cccc12 [Compound 94, 6-Hydroxy-1,2-dihydro-5-(2-hydroxyethyl)-3-oxo-N-(2-fluorophenyl)pyrido[1,2-a]benzimidazole-4-carboxamide]	2.38 nM	–	–	–	–	> 10 mg/kg	–
CCOCN1C2=C(C(=O)Nc3ccc(OC(C)C)cc3F)C(=O)CCN2c2ccc(F)cc21 [Compound 95]	2.5 nM	–	–	–	–	≤ 3 mg/kg	–
COCCN1C2=C(C(=O)Nc3ccccc3F)C(=O)CCN2c2cccc(OC)c21 [Compound 96]	1.8 nM	–	–	–	–	> 10 mg/kg	–
CCOCN1C2=C(C(=O)Nc3ccc(OC)cc3F)C(=O)CCN2c2ccc(F)cc21 [Compound 97, 7-Fluoro-1,2-dihydro-5-ethoxymethyl-3-oxo-N-(2-fluoro-4-methoxyphenyl)pyrido[1,2-a]benzimidazole-4-carboxamide]	0.41 nM	–	–	–	–	0.03 mg/kg	ED50 ([1]; mouse): ≤ 0.3 mg/kg; minimal effective dose [4, 9]: ≤ 0.1 mg/kg
COCCN1C2=C(C(=O)Nc3ncc(C)s3)C(=O)CCN2c2ccccc21 [Compound 98]	11 nM	–	–	–	–	3 mg/kg	–
CCOCN1C2=C(C(=O)Nc3ccc(O)cc3F)C(=O)CCN2c2ccc(F)cc21 [Compound 99, 7-Fluoro-1,2-dihydro-5·ethoxymethyl·3-oxo-N-(2-fluoro-4-hydroxyphenyl)pyrido[1,2-a]benzimidazale-4-carboxamide]	1.38 nM	–	–	–	–	1 to 3 mg/kg	ED50 ([1]; mouse): 0.3 to 3 mg/kg; minimal effective dose [4, 9]: ≤ 1 mg/kg
COCCN1C2=C(C(=O)Nc3ccccc3F)C(=O)CCN2c2c(OCc3ccccc3)cccc21 [Compound 109]	> 1000 nM	–	–	–	–	> 10 mg/kg	–
CCOCN1C2=C(C(=O)Nc3ccccc3F)C(=O)CCN2c2cc(F)cc(F)c21 [Compound 112]	13.3 nM	–	–	–	–	> 10 mg/kg	–
CCOCN1C2=C(C(=O)Nc3ccc(F)cc3F)C(=O)CCN2c2cc(F)cc(F)c21 [Compound 113]	44.3 nM	–	–	–	–	> 10 mg/kg	–
CCOCN1C2=C(C(=O)Nc3cc4ccccc4s3)C(=O)CCN2c2ccc(F)cc21 [Compound 115]	53.5 nM	–	–	–	–	–	ED50 ([1]; mouse): > 30 mg/kg; ED50 ([2]; mouse): > 1 mg/kg
CCOCCN1C2=C(C(=O)Nc3cc4ccccc4s3)C(=O)CCN2c2ccc(F)cc21 [Compound 117]	106 nM	–	–	–	–	–	ED50 ([1]; mouse): > 30 mg/kg; ED50 ([2]; mouse): ≤ 1 mg/kg
CC(=O)OCCN1C2=C(C(=O)Nc3ccccc3F)C(=O)CCN2c2ccc(F)cc21 [Compound 119, 7-Fluoro-1,2-dihydro-5-(2-acetoxyethyl)-3-oxo-N-(2-fluorophenyl)pyrido[1,2-a]benzimidazole-4-carboxamide]	–	–	–	–	–	3 mg/kg	ED50 ([1]; mouse): ≤ 3 mg/kg; ED50 ([2]; mouse): < 1 mg/kg
CCOCCN1C2=C(C(=O)Nc3ccc(Cl)s3)C(=O)CCN2c2ccc(F)cc21 [Compound 132]	3.13 nM	–	–	–	–	> 3 mg/kg	–
CCOCN1C2=C(C(=O)Nc3ccc(C)s3)C(=O)CCN2c2ccc(F)cc21 [Compound 133]	0.68 nM	–	–	–	–	> 3 mg/kg	–
O=C1CCN2C(=C1C(=O)Nc1ccccc1F)N(CC(O)CO)c1cc(F)ccc12 (stereo not drawn) [Compound 162, 7-Fluoro-1,2-dihydro-5-[2,3-dihydroxypropyl]-3-oxo-N-(2-fluorophenyl)pyrido[1,2-a]benzimidazole-4-carboxamide]	–	–	–	–	–	> 10 mg/kg	ED50 ([1]; mouse): ≤ 30 mg/kg; ED50 ([2]; mouse): 3 mg/kg; minimal effective dose [4, 9]: ≤ 10 mg/kg
C[S+]([O-])CCN1C2=C(C(=O)Nc3ccccc3F)C(=O)CCN2c2ccc(F)cc21 (stereo not drawn) [Compound 183, 7-Fluoro-1,2-dihydro-5-[2-(methylsulfoxy)ethyl]-3-oxo-N-(2-fluorophenyl)pyrido[1,2-a]benzimidazole-4-carboxamide]	–	–	10 mg/kg	~10 mg/kg	> 1 mg/kg	–	–
